Reference: publication PMC4792962, “A unified mechanism for proteolysis and autocatalytic activation in the 20S proteasome” (Nature Communications, 2016)
Residue numbers refer to the chain shown, from its start.

What was measured:
[1] = target: T1, yeast 20S proteasome core particle (yCP), β5 active site (ChT-L activity) (Saccharomyces cerevisiae, UniProt P23724+P30656, P30656:T76S); assay: fluorescence inhibition assay, Suc-LLVY-AMC; type: biochemical
T1 construct: gene PRE2; native 20S core particle purified from yeast (α7β7β7α7, 28 subunits), untagged; β5 mature after autocatalytic propeptide removal; in 'pp trans' mutants the β5 propeptide is expressed separately; with Proteasome subunit beta type-1; Proteasome subunit beta type-2; Proteasome subunit beta type-3; Proteasome subunit beta type-4; Proteasome subunit beta type-7; Proteasome subunit alpha type-1; Proteasome subunit alpha type-2; Proteasome subunit alpha type-3; Proteasome subunit alpha type-4; Proteasome subunit alpha type-5; Proteasome subunit alpha type-6; Probable proteasome subunit alpha type-7
T1 sequence (P30656 76-287 T76S): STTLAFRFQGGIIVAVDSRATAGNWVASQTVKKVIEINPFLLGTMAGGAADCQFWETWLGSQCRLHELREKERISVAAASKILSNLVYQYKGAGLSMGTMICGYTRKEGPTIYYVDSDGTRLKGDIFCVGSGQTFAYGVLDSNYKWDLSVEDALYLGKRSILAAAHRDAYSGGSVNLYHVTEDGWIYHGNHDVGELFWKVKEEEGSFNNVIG
T1 sequence (P23724 20-241): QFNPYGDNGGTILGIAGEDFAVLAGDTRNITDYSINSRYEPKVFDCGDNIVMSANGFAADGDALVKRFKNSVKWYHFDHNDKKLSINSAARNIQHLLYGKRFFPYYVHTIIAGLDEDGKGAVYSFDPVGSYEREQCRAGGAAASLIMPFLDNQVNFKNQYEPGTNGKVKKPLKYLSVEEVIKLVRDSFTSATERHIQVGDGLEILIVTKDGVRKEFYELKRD

[2] = target: T2, yeast 20S proteasome core particle (yCP), β5 active site (ChT-L activity) (Saccharomyces cerevisiae, UniProt P23724+P30656); assay: fluorescence inhibition assay, Suc-LLVY-AMC; type: biochemical
T2 construct: gene PRE2; native 20S core particle purified from yeast (α7β7β7α7, 28 subunits), untagged; β5 mature after autocatalytic propeptide removal; in 'pp trans' mutants the β5 propeptide is expressed separately; with Proteasome subunit beta type-1; Proteasome subunit beta type-2; Proteasome subunit beta type-3; Proteasome subunit beta type-4; Proteasome subunit beta type-7; Proteasome subunit alpha type-1; Proteasome subunit alpha type-2; Proteasome subunit alpha type-3; Proteasome subunit alpha type-4; Proteasome subunit alpha type-5; Proteasome subunit alpha type-6; Probable proteasome subunit alpha type-7
T2 sequence (P30656 76-287): T1 sequence (P30656 76-287 T76S) with S1T
T2 sequence (P23724 20-241): T1 sequence (P23724 20-241)

[3] = target: T3, yeast 20S proteasome core particle (yCP), β5 active site (ChT-L activity) (Saccharomyces cerevisiae, UniProt P23724+P30656, P30656:K108A); assay: X-ray crystal structure; type: binding; details: propeptide expressed in trans, covalent
T3 construct: gene PRE2; native 20S core particle purified from yeast (α7β7β7α7, 28 subunits), untagged; β5 mature after autocatalytic propeptide removal; in 'pp trans' mutants the β5 propeptide is expressed separately; with Proteasome subunit beta type-1; Proteasome subunit beta type-2; Proteasome subunit beta type-3; Proteasome subunit beta type-4; Proteasome subunit beta type-7; Proteasome subunit alpha type-1; Proteasome subunit alpha type-2; Proteasome subunit alpha type-3; Proteasome subunit alpha type-4; Proteasome subunit alpha type-5; Proteasome subunit alpha type-6; Probable proteasome subunit alpha type-7
T3 sequence (P30656 76-287 K108A): T1 sequence (P30656 76-287 T76S) with S1T, K33A
T3 sequence (P23724 20-241): T1 sequence (P23724 20-241)

[4] = target: T4, yeast 20S proteasome core particle (yCP), β5 active site (ChT-L activity) (Saccharomyces cerevisiae, UniProt P23724+P30656, P30656:D243N); assay: X-ray crystal structure; type: binding; details: crystal soak; covalent (morpholine ring with Thr1)
T4 construct: gene PRE2; native 20S core particle purified from yeast (α7β7β7α7, 28 subunits), untagged; β5 mature after autocatalytic propeptide removal; in 'pp trans' mutants the β5 propeptide is expressed separately; with Proteasome subunit beta type-1; Proteasome subunit beta type-2; Proteasome subunit beta type-3; Proteasome subunit beta type-4; Proteasome subunit beta type-7; Proteasome subunit alpha type-1; Proteasome subunit alpha type-2; Proteasome subunit alpha type-3; Proteasome subunit alpha type-4; Proteasome subunit alpha type-5; Proteasome subunit alpha type-6; Probable proteasome subunit alpha type-7
T4 sequence (P30656 76-287 D243N): T1 sequence (P30656 76-287 T76S) with S1T, D168N
T4 sequence (P23724 20-241): T1 sequence (P23724 20-241)

**Q.** Which results are given for CC(C)C[C@H](NC(=O)[C@H](Cc1ccccc1)NC(=O)c1cnccn1)B(O)O [bortezomib]?
**A.** IC50 [1]: 649 ± 176 nM; IC50 [2]: 174 ± 29 nM

**Q.** With CC(C)C[C@H](NC(=O)[C@H](CCc1ccccc1)NC(=O)CN1CCOCC1)C(=O)N[C@@H](Cc1ccccc1)C(=O)N[C@@H](CC(C)C)C(=O)[C@@]1(C)CO1 [carfilzomib] as the compound, how does the X-ray crystal structure [3] read?
**A.** crystal structure of the β5-K33A pp trans mutant in complex with carfilzomib

**Q.** And the X-ray crystal structure [4]?
**A.** Soaking the β5-D166N crystals with carfilzomib and MG132 resulted in covalent modification of Thr1
